In publication PMC7897990, “TriTOX: A novel Trichomonas vaginalis assay platform for high-throughput screening of compound libraries” (International Journal for Parasitology: Drugs and Drug …, 2021):
Counter-ions that a name gives are not always drawn. Like-named read-outs stand apart in the source and are kept apart here.

Tests used:
[1] = test system: Trichomonas vaginalis G3 trophozoites; experiment: microbe, parasite or virus in culture; settings: 48 h
[2] = test system: Trichomonas vaginalis G3 trophozoites; settings: for T.vaginalis_Absorbance_Rep1 / T.vaginalis_Absorbance_Rep2: HTS, parasite screen at 1 µg/mL; for T.vaginalis_Absorbance_Rep1: replicate 1, raw absorbance; for T.vaginalis_Absorbance_Rep2: replicate 2, raw absorbance; for T.vaginalis_%inb_Rep1 / T.vaginalis_%inb_Rep2: HTS single concentration, parasite screen 1 µg/mL; for T.vaginalis_%inb_Rep1: replicate 1; for T.vaginalis_%inb_Rep2: replicate 2
[3] = test system: nontumorigenic neonatal foreskin fibroblast (NFF) cell line; settings: NFF_NS1 screen 5 µg/mL, single concentration
[4] = read-out: T.vaginalis_%inb_Rep1
[5] = read-out: T.vaginalis_%inb_Rep2

Row | SMILES | inhibition of growth at 1 µg/mL [1, 4] | inhibition of growth at 1 µg/mL [1, 5] | other results
1 | CC[C@@H]1/C=C(\C)C[C@H](C)C[C@H](OC)[C@H]2O[C@@](O)(C(=O)C(=O)N3CCCC[C@H]3C(=O)O[C@H](/C(C)=C/[C@@H]3CC[C@H](Cl)[C@H](OC)C3)[C@H](C)[C@@H](O)CC1=O)[C@H](C)C[C@@H]2OC [Pimecrolimus] | 13% | 14% | –
2 | COC1=C2C[C@@H](C)C[C@H](OC)[C@H](O)[C@@H](C)/C=C(\C)[C@H](OC(N)=O)[C@@H](OC)/C=C\C=C(/C)C(=O)NC(=CC1=O)C2=O [Geldanamycin] | 13% | 14.1% | T.vaginalis_Absorbance_Rep1 [2]: 0.958; T.vaginalis_Absorbance_Rep2 [2]: 0.854
3 | CC[C@H]1OC(=O)C[C@@H](O)[C@H](C)[C@@H](O[C@@H]2O[C@H](C)[C@@H](O[C@H]3C[C@@](C)(O)[C@@H](O)[C@H](C)O3)[C@H](N(C)C)[C@H]2O)[C@@H](CC=O)C[C@@H](C)C(=O)/C=C/C(C)=C/[C@@H]1CO[C@@H]1O[C@H](C)[C@@H](O)[C@@H](OC)[C@H]1OC [Tylosin] | 9.02% | 5.48% | –
4 | CC[C@@H](C(=O)O)[C@@H]1O[C@@H]([C@@H](C)[C@H](O)[C@H](C)C(=O)[C@H](CC)[C@H]2O[C@]3(C=C[C@@H](O)[C@]4(CC[C@@](C)([C@H]5CC[C@](O)(CC)[C@H](C)O5)O4)O3)[C@H](C)C[C@@H]2C)[C@@H](C)C[C@@H]1C [Narasin] | 6.14% | 4.3% | –
5 | CC(=O)O[C@H]1CC[C@@]2(C)[C@@H](CC[C@@H]3[C@@H]2CC(=O)[C@]2(C)[C@@H]4[C@H](C[C@@H]32)O[C@]2(CC[C@@H](C)CO2)[C@H]4C)C1 [Hecogenin acetate] | 10.4% | 14.1% | T.vaginalis_Absorbance_Rep1 [2]: 0.908; T.vaginalis_Absorbance_Rep2 [2]: 0.854
6 | C=CC(C)(C)[C@@]12C[C@H]3C(=O)N[C@H](CC(C)C)C(=O)N3[C@H]1N(C(C)=O)c1ccccc12 [Verrucofortine] | 7.92% | 9.69% | –
7 | C=C1CC[C@H]2C(C)(C)CCC[C@]2(C)[C@H]1C[C@@]12C[C@H]3C(=O)N4CCC[C@H]4C(=O)N3[C@@H]1Nc1ccccc12 [Drimentine C] | 10.4% | 13.8% | T.vaginalis_Absorbance_Rep1 [2]: 0.907; T.vaginalis_Absorbance_Rep2 [2]: 0.85
8 | CC1=C\[C@@H](O)CC(=O)Cc2nc(co2)C(=O)N2CCC=C2C(=O)O[C@H](C(C)C)[C@H](C)/C=C/C(=O)NC\C=C\1 [Ostreogrycin A] | 13.9% | 14.5% | –
9 | CO[C@@H]1C[C@@H](C[C@H]2CC[C@H](C)[C@H]([C@@H](C)C(=O)O)O2)O[C@]2(O[C@](C)([C@H]3CC[C@@](C)([C@@H]4O[C@@H]([C@H]5O[C@@](O)(CO)[C@H](C)C[C@@H]5C)C[C@@H]4C)O3)C[C@H]2C)[C@@H]1C [Nigericin] | 6.59% | 6.22% | –
10 | C/C(=C\C(=O)OCCCCCCCCC(=O)O)C[C@@H]1OC[C@H](C[C@@H]2O[C@H]2[C@@H](C)[C@H](C)O)[C@@H](O)[C@H]1O [Pseudomonic acid] | 11.5% | 11.7% | –
11 | CCc1c(Cl)c(O)c(Cl)c(O)c1C(=O)O[C@H]1[C@H](O)[C@H](OC)[C@H](OC/C2=C\C=C\C[C@H](O)/C(C)=C/[C@H](CC)[C@@H](O[C@@H]3OC(C)(C)[C@@H](OC(=O)C(C)C)[C@H](O)[C@@H]3O)/C(C)=C/C(C)=C/C[C@@H]([C@@H](C)O)OC2=O)O[C@@H]1C [Fidaxomicin] | 11.5% | 10.1% | T.vaginalis_Absorbance_Rep1 [2]: 0.922; T.vaginalis_Absorbance_Rep2 [2]: 0.759
12 | Oc1cc(O)cc(O)c1 [Phloroglucinol] | 13.9% | 12.3% | –
13 | CN(C)[C@@H]1C(O)=C(C(N)=O)C(=O)[C@@]2(O)C(O)=C3C(=O)c4c(O)cccc4[C@@](C)(O)[C@H]3[C@H](O)[C@@H]12 [Oxytetracycline] | 13.3% | 10.7% | –
14 | C[C@H]1[C@H](C)CC[C@]2(C(=O)O)CC[C@]3(C)C(=CC[C@@H]4[C@@]5(C)CC[C@H](O)C(C)(C)[C@@H]5CC[C@]43C)[C@H]12 [Ursolic acid] | 7.39% | 10.4% | –
15 | CN(C)[C@H]1C(O)=C(C(N)=O)C(=O)[C@@]2(O)C(O)=C3C(=O)c4c(O)cccc4[C@@](C)(O)[C@H]3C[C@@H]12 [Epitetracycline hydrochloride] | 11% | 4.41% | –
16 | CN(C)c1ccc(O)c2c1C[C@H]1C[C@H]3[C@H](N(C)C)C(O)=C(C(N)=O)C(=O)[C@@]3(O)C(O)=C1C2=O [Minocycline HCl] | 4.51% | 0.77% | –
17 | CC(=O)c1c(O)c(C)c(O)c2c1OC1=CC(=O)C(C(C)=O)C(=O)C12C (stereo not shown) [Usnic acid] | 8.76% | 13.7% | –
18 | CN(C)c1cc(NC(=O)CNC(C)(C)C)c(O)c2c1C[C@H]1C[C@H]3[C@H](N(C)C)C(O)=C(C(N)=O)C(=O)[C@@]3(O)C(O)=C1C2=O [Tigecycline] | 10% | 5.97% | –

Row | SMILES | inhibition of growth at 1 µg/mL [1, 4] | inhibition of growth at 1 µg/mL [1, 5] | other results
19 | O=C(O)c1ccc[nH]1 [Pyrrole-2-carboxylic acid] | 17.3% | 11.6% | –
20 | COc1ccc(C[C@H](N)C(=O)N[C@H]2[C@@H](O)[C@H](n3cnc4c(N(C)C)ncnc43)O[C@@H]2CO)cc1 [Puromycin] | 12% | 10.7% | –
21 | C[C@@H]1C/C=C/C=C/C=C/C=C/[C@H](O[C@@H]2O[C@H](C)[C@@H](O)[C@H](N)[C@@H]2O)C[C@@H]2O[C@](O)(C[C@@H](O)C[C@H]3O[C@@H]3/C=C/C(=O)O1)C[C@H](O)[C@H]2C(=O)O [Pimaricin] | 10.4% | 13.7% | –
22 | CO[C@H]1C[C@@H]2CC[C@@H](C)[C@@](O)(O2)C(=O)C(=O)N2CCCC[C@H]2C(=O)O[C@H]([C@H](C)C[C@@H]2CC[C@H](n3cnnn3)[C@H](OC)C2)CC(=O)[C@H](C)/C=C(\C)[C@@H](O)[C@@H](OC)C(=O)[C@H](C)C[C@H](C)/C=C/C=C/C=C/1C [Zotarolimus] | 10.4% | 6.09% | –
23 | CO[C@H]1C[C@H](O[C@H]2[C@H](C)[C@@H](O[C@@H]3O[C@H](C)C[C@H](N(C)C)[C@H]3O)[C@@H](C)C[C@@]3(CO3)C(=O)[C@H](C)[C@@H](O)[C@@H](C)[C@@H](C)OC(=O)[C@@H]2C)O[C@@H](C)[C@@H]1O [Oleandomycin] | 13.2% | 4.75% | –
24 | COC(=O)[C@@H]1c2cc3c(c(O)c2[C@@H](O[C@@H]2O[C@@H](C)[C@H](OC)[C@@](C)(OC)[C@H]2OC)C[C@]1(C)O)C(=O)c1c(O)cc2c(c1C3=O)O[C@@H]1O[C@@]2(C)[C@H](O)[C@@H](N(C)C)[C@@H]1O [Nogalamycin] | 12.8% | 13.3% | –
25 | CO[C@@H]1[C@@H](OC(N)=O)[C@@H](O)[C@H](Oc2ccc3c(O)c(NC(=O)c4ccc(O)c(CC=C(C)C)c4)c(=O)oc3c2C)OC1(C)C [Novobiocin] | 4.51% | 4.68% | –
26 | Cc1cc(O)cc(O)c1C(=O)O [Orsellinic acid] | 12.5% | 14.9% | –
27 | CC[C@H]1OC(=O)C[C@@H](O)[C@H](C)[C@@H](O[C@@H]2O[C@H](C)[C@@H](O)[C@H](N(C)C)[C@H]2O)[C@@H](CCN2CCCCC2)C[C@@H](C)C(=O)/C=C/C(C)=C/[C@@H]1CN1CCCCC1 [Tildipirosin] | 7.13% | 12.7% | –
28 | COc1c(C)c2c(c(O)c1C/C=C(\C)CCC(=O)O)C(=O)OC2 [Mycophenolic acid] | 12.2% | 14.1% | –
29 | CC[C@@]1([C@@H]2O[C@@H]([C@H]3O[C@@](O)(CO)[C@H](C)C[C@@H]3C)C[C@@H]2C)CC[C@H]([C@]2(C)CC[C@]3(C[C@H](O)[C@@H](C)[C@@H]([C@@H](C)[C@@H](OC)[C@H](C)C(=O)O)O3)O2)O1 [Monensin A] | 12.4% | 16.1% | –
30 | C=C[C@]1(C)C[C@@H](OC(=O)CSC(C)(C)CNC(=O)[C@H](N)C(C)C)[C@]2(C)[C@H](C)CC[C@]3(CCC(=O)[C@H]32)[C@@H](C)[C@@H]1O [Valnemulin] | 8.39% | 8.96% | –
31 | OC[C@H]1O[C@@H](n2cnc3c2NC=NC[C@H]3O)C[C@@H]1O [Pentostatin] | 12.7% | 15.8% | –
32 | O=C(O)/C=C/c1c[nH]cn1 [Urocanic acid] | 8.39% | 13.2% | –
33 | CC[C@H](C)C(=O)O[C@H]1C[C@H](O)C=C2C=C[C@H](C)[C@H](CC[C@@H](O)C[C@@H](O)CC(=O)O)[C@H]21 [Pravastatin sodium] | 13% | 13.6% | –
34 | O=C1NC(c2c[nH]c3ccc(O)cc23)=C/C1=C1\C(=O)Nc2ccccc21 [Violacein] | 11.2% | 11.8% | –
35 | CC[C@H](C)[C@H]1O[C@]2(C=C[C@@H]1C)C[C@@H]1C[C@@H](C/C=C(\C)[C@@H](O[C@H]3C[C@H](OC)[C@@H](O[C@H]4C[C@H](OC)[C@@H](O)[C@H](C)O4)[C@H](C)O3)[C@@H](C)/C=C/C=C3\CO[C@@H]4[C@H](O)C(C)C=C(C(=O)O1)[C@]34O)O2 (stereo partly shown) [BIA-A1579] | – | – | T.vaginalis_%inb_Rep1 [2]: 15.89%; T.vaginalis_%inb_Rep2 [2]: 15.40%; NFF_Activity [3]: I (otherwise these were reported as inactive (I))
36 | CN1C(=O)c2ccccc2-n2c(nc3ccccc3c2=O)C1=Cc1ccccc1 [BIA-B1646] | – | – | T.vaginalis_%inb_Rep1 [2]: 16.10%; T.vaginalis_%inb_Rep2 [2]: 13.67%; NFF_Activity [3]: I (otherwise these were reported as inactive (I))
